Measured values taken from US20190022092A1, “Therapeutic Combinations of a BTK Inhibitor and a GITR Binding Molecule, a 4-1BB Agonist, or an OX40 Agonist” (Acerta Pharma B.V., priority 2015, published 2019).

Experiments:
[1] = test system: Raji cell line; experiment: Antibody-dependent NK cell-mediated cytotoxicity, chromium release, Raji cell line; assay type: cell-based; settings: 1 μM, 4 hours, variable rituximab, effector:target 25:1
[2] = test system: NK cell lysis of Raji cells; experiment: Rituximab ADCC 51Cr release assay, Raji targets; assay type: cell-based, human
Text: Cell culture conditions were as follows. […] The HER18 cells were maintained in DEM supplemented with fetal bovine serum, penicillin-streptomycin and. Prior to assay, HER18 cells were harvested using trypsin-EDTA, washed with phosphate-buffered saline (PBS) containing 5% serum and viable cells were counted. For culture of primary target cells, peripheral blood from CLL patients was subject to density centrifugation to obtain peripheral blood mononuclear cells (PBMC). Cell preparations were washed and then subject to positive selection of CD5^+CD19^+ CLL cells using magnetic beads (MACS, Miltenyi Biotech). Cell preparations were used fresh after selection. NK cells from CLL patients and healthy volunteers were enriched from peripheral blood collected in sodium citrate anticoagulant tubes and then subject to density centrifugation. Removal of non NK cells was performed using negative selection by MACS separation. Freshly isolated NK cells were washed three times, enumerated, and then used immediately for ADCC assays.
ADCC assays were performed as follows. Briefly, target cells (Raji or primary CLL) were labeled by incubation at 37° C. with 100 μCi ^51Cr for 4 hours prior to co-culture with NK cells. Cells were washed, enumerated, and then added in triplicate to prepared 96-well plates containing treated NK cells at an effector:target (E:T) ratio of 25:1. […] Cultures were incubated at 37° C. for 4 hours, and then centrifuged. Supernatants were harvested and ^51Cr release was measured by liquid scintillation counting. All experiments were performed in triplicate.

[3] = test system: Th17 and Treg cells; experiment: Th17 and Treg development of CD4+ T cells under skewing cytokines; assay type: cell-based
Description: Enriched CD4^+ T cells are plated on 24-well culture dishes that have been precoated 2 hr with 250 μL anti-TCRβ (0.5 μg/mL) plus anti-CD28 (5 μg/mL) at 37° C. in PBS. The cells are then supplemented with media containing BTK inhibitors along with the skewing cytokines as indicated in the following. The Th17 and Treg cultures are grown for 4 days before analysis. The cells are maintained for an additional 3 days with skewing cytokines (Th17; 20 ng/mL IL-6, 0.5 ng/mL TGF-β, 5 μg/mL IL-4, 5 μg/mL IFN-γ and Treg; 0.5 ng/mL TGF-β, 5 μg/mL IL-4, 5 μg/mL IFN-γ) and are supplemented with IL2 as a growth factor.

[4] = test system: CD8+ T cell; experiment: Cytotoxicity assay for CD8+ T cell function; assay type: cell-based; settings: relative to vehicle
Text: FIG. 38 illustrates the results of the cytotoxicity assay for CD8^+ T cell function.

[5] = test system: GPVI platelet aggregation; experiment: GPVI (convulxin-induced) platelet aggregation; assay type: cell-based; settings: human platelets
Description: In FIG. 67, the results of CVX-induced (250 ng/mL) human platelet aggregation results before and 15 minutes after administration of the BTK inhibitors to 6 healthy individuals are shown.

[6] = test system: GPVI platelet aggregation; experiment: GPVI platelet aggregation studies; assay type: cell-based; settings: read-out: IC50, GPVI platelet aggregation
[7] = test system: CD8+ T cell; experiment: IFN-γ level measurements for CD8+ T cell function; assay type: cell-based; settings: relative to vehicle
Text: FIG. 39 illustrates the results of IFN-γ level measurements for CD8^+ T cell function.

[8] = test system: hematologic malignancies; settings: cited from earlier work
[9] = test system: CD8+ T cell function (B lymphoblast targets); experiment: Cytotoxic T cell (CTL) assay; assay type: cell-based; settings: CTL generated 4 days with 500 nM inhibitor
Description: Without being bound by any theory, CD8^+ T cells have two primary effector functions: (1) produce large amounts of IFN-γ (which activates macrophages), and (2) cytolytic activity. […] The targets were B lymphoblasts from lipopolysaccharide (LPS) treated cultures. The assay was performed by incubating different ratios of effectors:targets for 4 hours.

[10] = test system: CD8+ T cells; experiment: CD8+ T cell viability on anti-TCR/anti-CD28 coated wells; assay type: cell-based; settings: 4 days, neutral culture conditions
Description: Total T cells were plated on anti-TCR and anti-CD28 coated wells in the presence of both BTK inhibitors. Neutral culture conditions were used that will not polarize T cells to a helper lineage. […] Statistical significance was calculated using the Mann Whitney T-test.

[11] = test system: human platelet-mediated thrombosis; settings: VWF HA1, mouse (infused with human platelets), in vivo, 2 min
Description: Injury to the vessel wall of arterioles ([…] diameter) was performed using a pulsed nitrogen dye laser (440 nm, Photonic Instruments) applied through a 20× water-immersion Olympus objective (LUMPlanF1, 0.5 numerical aperture (NA)) of a Zeiss Axiotech vario microscope. […] The extent of thrombus formation was assessed for 2 minutes after injury and the area (μm^2) of coverage determined (Image IQ, Andor Technology).
The BTK inhibitor-treated human platelets were fluorescently labeled and infused continuously through a catheter inserted into the femoral artery.

[12] = test system: peripheral blood B cell; settings: doses from 0.001-100 mg/kg, two experiments; cited from earlier work

## C=CC(=O)N1CCC[C@@H](n2nc(-c3ccc(Oc4ccccc4)cc3)c3c(N)ncnc32)C1 [Formula (10), 1-[(3R)-3-[4-amino-3-(4-phenoxyphenyl)-1H-pyrazolo[3,4-d]pyrimidin-1-yl]piperidin-1-yl]prop-2-en-1-one, reference compound]
[1]
  antibody-dependent NK cell-mediated cytotoxicity (percent lysis): antagonizes antibody-dependent NK cell-mediated cytotoxicity
[2]; 1 μM, NK cells, E:T 25:1
  effect on rituximab-mediated ADCC, Raji cells: strongly inhibited
[3]
  Th17 development: profound inhibition
  Treg development: increase
[4]
  CD8+ T cell function as % cytotoxicity: affects CD8^+ T cell function as measured by % cytotoxicity
[5]
  GPVI platelet aggregation: significantly inhibits
[6]
  IC50: 130 nM
[7]
  CD8+ T cell function as IFN-γ level: affects CD8^+ T cell function as measured by IFN-γ level
[8]; subjects with heavily pretreated non-Hodgkin lymphoma
  antitumor activity: substantial antitumor activity
[8]; within the tested dose range (through 840 mg)
  maximum tolerated dose (MTD): No maximum tolerated dose (MTD) was apparent
[9]
  CD8+ T cell function as % cytotoxicity: affects CD8^+ T cell function
  CD8+ T cell function as IFN-γ levels: significant loss of function
[10]
  CD8+ T cell viability: strong, negative effect

## C=CC(=O)Nc1cccc(Nc2nc(Nc3ccc(OCCOC)cc3)ncc2F)c1 [Formula (17), N-(3-((5-fluoro-2-((4-(2-methoxyethoxy)phenyl)amino)pyrimidin-4-yl)amino)phenyl)acrylamide, reference compound]
[11]
  effect on human platelet-mediated thrombus formation: effect similar to Formula (10) (ibrutinib)

## PF-05082566: 4-1BB agonist monoclonal antibody from Pfizer; heavy chain SEQ ID NO:435, light chain SEQ ID NO:436
[12]
  peripheral blood B cell numbers: either unchanged or decreased

## rituximab: anti-CD20 antibody (Genentech)
[2]; rituximab 0.1 and 1 μg/mL, healthy donor NK cells, Raji cells
  increase in cell lysis over natural cytotoxicity: 5- to 8 fold
